Entries after “also recorded” stand apart in the source; their conditions may differ. Like-named read-outs stand apart in the source and are kept apart here.
Key:
[1] = Log partition coefficient (log p); type: physicochemical
[2] = cited from earlier work
[3] = Multimedia dissolution of Bempedoic acid tablets (USP Apparatus-II, 50 rpm, 900 mL); type: physicochemical; details: QC medium (phosphate buffer, pH 6.8); in 20 minutes
Method: Dissolution characterization was performed in accordance with the dissolution method detailed in IND #106,654. The dissolution conditions were 900 mL phosphate buffer, pH 6.8, using Apparatus-II at 50 rpm.

[4] = Flowability of the APIs (compressibility index, Hausner's ratio); type: physicochemical; details: drug substance
[5] = Drug-drug compatibility study (HPLC, binary mixture 1:18 ezetimibe:bempedoic acid, solid state); type: physicochemical; details: for Assay (Bempedoic Acid): in % (unit assumed)
Method: The fixed dose combination product under development is a novel combination of two drug substances and therefore determination of compatibility of the actives with each other was considered to be critical. The compatibility of the actives was assessed through HPLC analysis of binary mixtures of the drug substances at a ratio 1:18 (ezetimibe:bempedoic acid) in the solid state. Samples were stored at 60° C. and 40° C./75% RH in both open and closed containers for 2 weeks and 4 weeks respectively. Degradation products were evaluated for open (stressed) samples of accelerated condition (40° C./75% RH) and 60° C. Assay for the samples was also carried out.

[6] = Forced degradation of bempedoic acid; type: physicochemical
Method: Forced degradation of bempedoic acid was carried out to study the impurity profile, degradation pathway, and to facilitate the development of a stability-indicating method. In addition, knowledge obtained from the forced degradation studies was used during formulation and process design and development to prevent impurities from being generated. The specified stress conditions were intended to achieve 5-20% degradation. The stressed samples were compared to the unstressed sample (control).

[7] = pKa by potentiometric titration; type: physicochemical; details: determined by potentiometric titration
[8] = Forced degradation of ezetimibe; type: physicochemical
[9] = QC dissolution of ezetimibe component (0.45% SLS in 0.05 M acetate buffer pH 4.5, Apparatus-II, 50 rpm, 500 mL); type: physicochemical; details: QC dissolution medium, within 15 minutes
Method: Drug release profiles for both actives were estimated using common chromatographic conditions with different injection volumes.
The goal of Formulation Development Study #2 was to optimize the concentration of binder used for the granulation of ezetimibe. Wet granulation was used for the preparation of ezetimibe granules. Binder solution, povidone with SLS, and ezetimibe were used for the granulation of dry-mix powder blend. One trial with a higher concentration of povidone (3 mg/tablet) and another with a lower concentration (1 mg/tablet) were performed to observe the impact of binder concentration on dissolution. Ezetimibe granules were mixed with Bempedoic acid granules separately and compressed into a monolayer tablet for both trials.
Dissolution Profile of FDC test product (ezetimibe component) in QC media is given in Table 52, Table 53, FIG. 15, and FIG. 16.

[10] = Drug substance attributes (solubility, permeability, BCS class, hygroscopicity); type: physicochemical
[11] = 18.48 mg of solid in Sun cabinet 765 W/m2 at 35° C. for 24 hrs
[12] = 21.41 mg of solid + Heating at 80° C. for 24 hrs
[13] = 5.0 mL stock solution + Heating at 80° C. for 30 min
[14] = 5.0 mL stock solution in Sun cabinet 765 W/m2 at 35° C. for 15 hrs

Structure (SMILES): CC(C)(CCCCCC(O)CCCCCC(C)(C)C(=O)O)C(=O)O [Bempedoic acid, 8-hydroxy-2,2,14,14-tetramethylpentadecanedioic acid]
- logP ([1]; octanol/pH 3.5 buffer, pH 3.5): 4.38
- logP ([1]; octanol/water): 4.33
- aqueous solubility [2]: pH dependent
- aqueous solubility ([2]; listed as Bempedoic acid (ETC-1002)): poorly soluble in water
- drug released [3]: more than 85%
- Hausner's ratio [4]: 1.48
- compressibility index [4]: 32.6%
- Assay (Bempedoic Acid) ([5]; 2W 60°): 100.2
- Assay (Bempedoic Acid) ([5]; 4W 40° C./75% RH Open): 103.7
- unspecified impurity ([5]; Initial, 2W 60°, 4W 40° C./75%): No unspecified impurity generated
- Assay (Bempedoic Acid) ([5]; Initial): 101.7
- Assay ([6]; Non stressed bempedoic acid): 99.0%
- Assay ([6]; Photo, solid state): 99.2%
- Assay ([6]; Thermal, solid state 105° C.): 95.8%
- Assay ([6]; Thermal, solution 105 C): 97.7%
- stability in the stress test study ([6]; all studied stress conditions): stable at all studied conditions
- Assay ([6]; exposed to H2O2): 100.4%
- Assay ([6]; exposed to HCl): 98.7%
- Assay ([6]; exposed to NaOH, differs from expected ~100% due to non-quantitative neutralization prior to injection (footnote 2)): 117.3(2) %
- pKa [7]: 4.88
- pKa ([7]; second value): 5.6

Structure (SMILES): O=C1[C@H](CC[C@H](O)c2ccc(F)cc2)[C@@H](c2ccc(O)cc2)N1c1ccc(F)cc1 [Ezetimibe, (3R,4S)-1-(4-fluorophenyl)-3-[(3S)-3-(4-fluorophenyl)-3-hydroxypropyl]-4-(4-hydroxyphenyl) azetidin-2-one]
- logP ([1]; n-octanol/pH 7 aqueous phase, n-octanol: pH 7): 4.51
- logP ([1]; pH 1, n-octanol: 0.1N HCl): 4.52
- aqueous solubility [2]: insoluble in aqueous media at all pH; also recorded: poorly soluble in water
- % Degradation, Total (unspecified and specified) [8, 11]: 0.22%
- Assay [8, 11]: 98.0%
- % Degradation, Total (unspecified and specified) [8, 12]: 0.14%
- Assay [8, 12]: 96.3%
- Assay ([8]; 5.0 mL stock solution + 0.1 mL 1N NaOH at RT for 30 min): 83.1%
- Assay ([8]; 5.0 mL stock solution + 1 mL 1N HCl at RT for 24 hrs): 97.9%
- Assay ([8]; 5.0 mL stock solution + 1 mL H2O2 30% at RT for 24 hrs): 97.0%
- % Degradation, Total (unspecified and specified) [8, 13]: 5.67%
- Assay [8, 13]: 93.1%
- % Degradation, Total (unspecified and specified) [8, 14]: 1.57%
- Assay [8, 14]: 95.0%
- % Degradation, Total (unspecified and specified) ([8]; Non stressed ezetimibe): 0.12%
- Assay ([8]; Non stressed ezetimibe): 100.0%
- stability classification from forced degradation ([8]; exposure to alkali (NaOH) and peroxide (H2O2)): sensitive to alkali and peroxide
- stability in the solid form ([8]; heat and photo irradiation, solid form): stable to heat and photo irradiation
- Hausner's ratio [4]: 1.42
- compressibility index [4]: 29.60%
- drug release (ezetimibe) [9]: more than 85%
- Assay (EZT) ([5]; 2W 60°): 97.6%
- EZT 21 (Keto impurity) ([5]; 2W 60°): 0.04
- EZT cyclic ether ([5]; 2W 60°): 0.12%
- SMUI ([5]; 2W 60°): 0.17%
- Total impurities ([5]; 2W 60°): 0.33%
- Assay (EZT) ([5]; 4W 40° C./75% RH Open): 99.5%
- EZT 21 (Keto impurity) ([5]; 4W 40° C./75% RH Open): 0.38
- EZT cyclic ether ([5]; 4W 40° C./75% RH Open): 0.9%
- SMUI ([5]; 4W 40° C./75% RH Open): 0.19%
- Total impurities ([5]; 4W 40° C./75% RH Open): 2.34%
- Assay (EZT) ([5]; Initial): 99.3%
- EZT 21 (Keto impurity) ([5]; Initial): 0.03
- SMUI ([5]; Initial): 0.03%
- Total impurities ([5]; Initial): 0.06%
- pKa [7]: 9.75
- BCS class [10]: Ezetimibe is BCS class II compounds having low
- Solubility [10]: low solubility

Reference: patent US20180338922A1, “FIXED DOSE FORMULATIONS” (Esperion Therapeutics, Inc., priority 2017, published 2018)
